Values of other authors, collected in patent publication US20030026872A1, “Compositions having enhanced aqueous solubility and methods of their preparation” (The Procter & Gamble Co., priority 2001, published 2003).
Peptide text beside a SMILES is read from it.

conditions: relative to sucrose

Molecule	relative sweetening intensity (RSI)
CC1=CC(=O)[N-]S(=O)(=O)O1.[K+] [acesulfame K]	about 200 times that of sucrose
C[C@@H](NC(=O)[C@@H](N)CC(=O)O)C(=O)NC1C(C)(C)SC1(C)C [alitame]	about 2000 times that of sucrose
COC(=O)[C@H](Cc1ccccc1)NC(=O)[C@@H](N)CC(=O)O [aspartame, N-L-alpha-aspartyl-phenylalanine-l-methyl ester] (H-Asp-Phe-OMe)	about 180 times that of sucrose
OC[C@@H](O)[C@@H](O)CO [erythritol]	about 0.7 times that of sucrose
CC(C)=CCC[C@](C)(O)[C@@H]1CCC(C)=CC1=O [hemandulcin]	about 1000 times that of sucrose
OC[C@@H](O)[C@@H](O[C@@H]1O[C@H](CO)[C@H](O)[C@H](O)[C@H]1O)[C@H](O)[C@@H](O)CO [lactitol]	about 0.4 times that of sucrose
OC[C@@H](O)[C@@H](O[C@H]1O[C@H](CO)[C@@H](O)[C@H](O)[C@H]1O)[C@H](O)[C@@H](O)CO [maltitol]	about 0.8 times that of sucrose
OC[C@@H](O)[C@@H](O)[C@H](O)[C@H](O)CO [mannitol]	about 0.7 times that of sucrose
O=C1NS(=O)(=O)c2ccccc21 [saccharin]	about 300 times that of sucrose
OC[C@@H](O)[C@@H](O)[C@H](O)[C@@H](O)CO [sorbitol]	about 0.6 times that of sucrose
C=C1C[C@@]23CC[C@H]4[C@@](C)(CCC[C@@]4(C)C(=O)O[C@@H]4O[C@H](CO)[C@@H](O)[C@H](O)[C@H]4O)[C@@H]2CC[C@]1(O[C@@H]1O[C@H](CO)[C@@H](O)[C@H](O)[C@H]1O[C@@H]1O[C@H](CO)[C@@H](O)[C@H](O)[C@H]1O)C3 [stevioside]	about 300 times that of sucrose
OC[C@H]1O[C@H](O[C@]2(CCl)O[C@H](CCl)[C@@H](O)[C@@H]2O)[C@H](O)[C@@H](O)[C@H]1Cl [sucralose]	about 600 times that of sucrose
OC[C@H]1O[C@@](CO)(O[C@H]2O[C@H](CO)[C@@H](O)[C@H](O)[C@H]2O)[C@@H](O)[C@@H]1O [sucrose]	one
OC[C@@H](O)[C@H](O)[C@@H](O)CO [xylitol]	about equal to sucrose
cyclamates	about 30 times that of sucrose
isomalt	about 0.5 times that of sucrose
